Source: patent US20100168143A1, “QUINAZOLINE DERIVATIVES” (ASTRAZENECA AB, priority 2006, published 2010)

Key:
[1] = tested on: phosphohistone H3 levels in drug-resistant MCF7-ADR human breast tumour cells; experiment: In vitro drug-resistant cell phenotype and substrate phosphorylation assay (MCF7-ADR); type: cell-based; details: NCI/ADR-RES, 24 hours of treatment, read-out: EC50 for inhibition of phosphohistone H3 levels
Experimental: (d) In Vitro Drug-Resistant Cell Phenotype and Substrate Phosphorylation Assay.
This assay is used to determine the cellular effects of compounds on drug-resistant MCF7-ADR human breast tumour cells in vitro.
Compounds typically cause inhibition of levels of phosphohistone H3 and an increase in the nuclear area of treated cells.
0.8×10^4 MCF7-ADR cells per well were plated in 100 μl DMEM media (containing 10% FCS (foetal calf serum) and 1% glutamine) in costar 96 well plates and left overnight at 37° C. and 5% CO2 to adhere.
All other procedures are identical to those for the above assay using SW620 cells.
The compounds of the invention generally have EC50 values for inhibition of phosphohistone H3 levels of […], particularly 0.5 nM to 1 μM and more particularly 0.5 nM to 0.5 μM.

aurora B kinase = aurora B kinase (Homo sapiens, UniProt Q96GD4); experiment: In vitro aurora B kinase inhibition test; type: biochemical; details: aurora B-INCENP enzyme; 33P-ATP filter assay, 60 minutes; read-out: IC50 (50% inhibition of enzyme activity), aurora B
aurora B kinase, sequence (Q96GD4 whole entry): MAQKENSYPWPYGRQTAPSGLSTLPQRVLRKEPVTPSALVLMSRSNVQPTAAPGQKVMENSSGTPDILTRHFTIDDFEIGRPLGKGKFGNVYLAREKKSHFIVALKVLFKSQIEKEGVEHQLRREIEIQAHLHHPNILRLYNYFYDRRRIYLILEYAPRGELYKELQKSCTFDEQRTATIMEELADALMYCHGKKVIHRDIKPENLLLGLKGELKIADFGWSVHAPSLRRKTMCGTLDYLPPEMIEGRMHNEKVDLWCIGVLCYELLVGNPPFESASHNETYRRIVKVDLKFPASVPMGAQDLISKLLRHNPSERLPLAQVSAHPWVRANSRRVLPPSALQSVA
aurora B kinase, sequence (Q9NQS7 826-918 partner limits assumed): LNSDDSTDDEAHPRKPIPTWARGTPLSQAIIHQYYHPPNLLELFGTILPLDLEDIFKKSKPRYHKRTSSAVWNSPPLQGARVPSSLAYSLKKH
Source text: (b) In Vitro Aurora B Kinase Inhibition Test
This assay determines the ability of a test compound to inhibit serine-threonine kinase activity. DNA encoding aurora B may be obtained by total gene synthesis or by cloning. This DNA may then be expressed in a suitable expression system to obtain polypeptide with serine-threonine kinase activity. In the case of aurora B, the coding sequence was isolated from cDNA by polymerase chain reaction (PCR) and cloned into the pFastBac system in a manner similar to that described above for aurora A (i.e. to direct expression of a 6-histidine tagged aurora B protein).
For the large scale expression of aurora B kinase activity, Sf21 insect cells were grown at 28° C. in TC100 medium supplemented with 10% foetal calf serum (Viralex) and 0.2% F68 Pluronic (Sigma) on a Wheaton roller rig at 3 r.p.m. When the cell density reached 1.2×10^6 cells ml^−1 they were infected with plaque-pure aurora B recombinant virus at a multiplicity of infection of 1 and harvested 48 hours later. All subsequent purification steps were performed at 4° C. […]

| SMILES | EC50 [1] [nM] | IC50 (aurora B kinase) [nM] |
| --- | --- | --- |
| COc1cc(OC[C@H]2CCCN2)c2c(Nc3cnn(CC(=O)Nc4cccc(F)c4F)c3)ncnc2c1 [Prior art compound (I), reference compound] | 120 |  |
| CCOc1cc(OC[C@H]2CCCCN2)c2c(Nc3cnn(CC(=O)Nc4cccc(F)c4F)c3)ncnc2c1 [compound 1] | < 1 | 1.4 |
| COc1cc(OC[C@H]2CCCCN2)c2c(Nc3cnn(CC(=O)Nc4cccc(F)c4F)c3)ncnc2c1 [compound 2, N-(2,3-difluorophenyl)-2-[4-({7-methoxy-5-[(2R)-piperidin-2-ylmethoxy]quinazolin-4-yl}amino)-1H-pyrazol-1-yl]acetamide] | 20 | 1.4 |
